Experimental data published in EP4121415B1, “INHIBITORS OF CYTOKININ OXIDASE DERIVED FROM 1-[2-(HYDROXYALKYL)PHENYL]-3-YLUREA, USE THEREOF AND PREPARATIONS CONTAINING THESE DERIVATIVES” (Univerzita Palackého v Olomouci, priority 2020, dated 2021).

These molecules were tested against T1, maize enzyme cytokinin oxidase/dehydrogenase 1 (ZmCKX1) (Zea mays, UniProt Q9T0N8) (assay: ZmCKX1 inhibition, PMS/MTT assay). Conditions: not given.
T1 construct: made in house; host or cells: Yarrowia lipolytica
T1 sequence (Q9T0N8 19-534): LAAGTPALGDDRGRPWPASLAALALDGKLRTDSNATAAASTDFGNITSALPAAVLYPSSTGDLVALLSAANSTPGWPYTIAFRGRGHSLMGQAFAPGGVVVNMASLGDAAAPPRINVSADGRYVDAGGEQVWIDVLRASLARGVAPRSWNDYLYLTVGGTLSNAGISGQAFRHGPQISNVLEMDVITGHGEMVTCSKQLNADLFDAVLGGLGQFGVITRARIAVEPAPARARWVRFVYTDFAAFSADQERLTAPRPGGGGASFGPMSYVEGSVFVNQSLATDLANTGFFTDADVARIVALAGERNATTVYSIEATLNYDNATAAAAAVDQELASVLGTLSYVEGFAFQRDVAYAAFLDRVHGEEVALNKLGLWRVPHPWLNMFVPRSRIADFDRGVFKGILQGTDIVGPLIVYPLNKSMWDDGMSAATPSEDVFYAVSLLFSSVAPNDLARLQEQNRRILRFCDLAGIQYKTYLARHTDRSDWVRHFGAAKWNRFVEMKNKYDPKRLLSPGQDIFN
Format: biochemical
Protocol: The IC50 (concentration of a substance that causes 50% inhibition of the enzyme activity) was measured by PMS/MTT assay [phenazine methosulphate/3-(4,5-dimethylthiazol-2-yl)-2,5-diphenyltetrazolium bromide]. The assay was performed in 96-well microtiter plates. Each well contained a reaction mixture with a final concentration of: 0.1 M KH2PO4, pH 7.4, 1 mM MTT, 0.2 mM PMS, tested substance in a concentration range of 0.1 nM - 1 µM and 10 µM N^6-isopentenyladenine (iP) as a substrate. To this reaction mixture 100 µL of medium containing the active enzyme ZmCKX1 was added. The enzyme was produced by the yeast Yarrowia lipolytica and isolated according to the protocol (Kopečný D. et al., 2005, […] 87:1011-1022). The plates were incubated for 30 min at 37 °C and the enzymatic reaction was stopped by the addition of 25 µL of 35% acetic acid. Then, the absorbance at 578 nm was measured on a spectrophotometer, and the absorbance of the sample without the substrate was substracted as a reference value. The IC50 value was determined from the concentration-dependent curves in GraphPad Prism software. The values shown in Table 1 are the average of at least two measurements each performed in three repetitions. […] This also applies to 3,5-DCl-Ph-U derivatives.

Row | Compound | IC50
1 | O=C(Nc1cc(F)cc(Br)c1)Nc1ccccc1CCO [Compound 47, 1-(3-bromo-5-fluorophenyl)-3-[2-(2-hydroxyethyl)phenyl]urea] | 0.17 µM
2 | COc1cc(Br)cc(NC(=O)Nc2ccccc2CCO)c1 [Compound 56, 1-(3-bromo-5-methoxyphenyl)-3-[2-(2-hydroxyethyl)phenyl]urea] | 0.14 µM

Same assay, conditions: 10 µM N6-isopentenyladenine (iP) as substrate, pH 7.4, 30 min at 37 °C; average of at least two measurements; read-out: IC50 (µM) ZmCKX1

Row | IC50 | Compound
3 | 2.5 µM | O=C(Nc1ccnc(F)c1)Nc1ccccc1CO [Compound 1, 1-(2-fluoropyridin-4-yl)-3-(2-hydroxymethylphenyl)urea]
4 | 0.82 µM | O=C(Nc1cc(F)nc(F)c1)Nc1ccccc1CO [Compound 3, 1-(2,6-difluoropyridin-4-yl)-3-(2-hydroxymethylphenyl)urea]
5 | 1.1 µM | COc1cc(NC(=O)Nc2ccccc2CO)ccn1 [Compound 7, 1-(2-methoxypyridin-4-yl)-3-(2-hydroxymethylphenyl)urea]
6 | 1.6 µM | O=C(Nc1ccnc(F)c1)Nc1ccccc1CCO [Compound 9, 1-(2-fluoropyridin-4-yl)-3-[2-(2-hydroxyethyl)phenyl]urea]
7 | 0.72 µM | O=C(Nc1cc(F)nc(F)c1)Nc1ccccc1CCO [Compound 10, 1-(2,6-difluoropyridin-4-yl)-3-[2-(2-hydroxyethyl)phenyl]urea]
8 | 0.43 µM | O=C(Nc1cc(Cl)nc(Cl)c1)Nc1ccccc1CCO [Compound 13, 1-(2,6-Dichloropyridin-4-yl)-3-[2-(2-hydroxyethyl)phenyl]urea]
9 | 0.056 µM | O=C(Nc1cc(Cl)nc(Cl)c1)Nc1cc(F)ccc1CCO [Compound 14, 1-[5-fluoro-2-(2-hydroxyethyl)phenyl]-3-(2,6-dichloropyridin-4-yl)urea]
10 | 0.15 µM | COc1cc(NC(=O)Nc2cc(F)ccc2CCO)ccn1 [Compound 15, 1-[5-fluoro-2-(2-hydroxyethyl)phenyl]-3-(2-methoxypyridin-4-yl)urea]
11 | 0.65 µM | O=C(Nc1cc(F)cc(F)c1)Nc1ccccc1CO [Compound 17, 1-(3,5-difluorophenyl)-3-(2-hydroxymethylphenyl)urea]
12 | 0.4 µM | O=C(Nc1cc(Cl)cc(Cl)c1)Nc1ccccc1CO [Compound 18, 1-(3,5-Dichlorophenyl)-3-(2-hydroxymethylphenyl)urea]
13 | 0.33 µM | O=C(Nc1cc(Br)cc(Br)c1)Nc1ccccc1CO [Compound 19, 1-(3,5-dibromophenyl)-3-(2-hydroxymethylphenyl)urea]
14 | 0.27 µM | O=C(Nc1cc(Cl)cc(Cl)c1)Nc1cccc(Cl)c1CO [Compound 20, 1-(3-Chloro-2-hydroxymethylphenyl)-3-(3,5-dichlorophenyl)urea]
15 | 0.02 µM | O=C(Nc1cc(Cl)cc(Cl)c1)Nc1cc(Cl)cc(Cl)c1CO [Compound 21, 1-(3,5-Dichloro-2-hydroxymethylphenyl)-3-(3,5-dichlorophenyl)urea]
16 | 0.2 µM | COc1cc(NCCO)cc(NC(=O)Nc2ccccc2CO)c1 [Compound 23, 1-[3-(2-hydroxyethylamino)-5-methoxyphenyl]-3-(2-hydroxymethylphenyl)urea]
17 | 0.18 µM | COc1cc(NCCN)cc(NC(=O)Nc2ccccc2CO)c1 [Compound 24, 1-[3-(2-aminoethylamino)-5-methoxyphenyl]-3-(2-hydroxymethylphenyl)urea]
18 | 1.5 µM | CSc1cccc(NC(=O)Nc2ccccc2CO)c1 [Compound 26, 1-(2-hydroxymethylphenyl)-3-(3-methylsulphanylphenyl)urea]
19 | 1.3 µM | O=C(Nc1cccc(OC(F)(F)F)c1)Nc1ccccc1CO [Compound 28, 1-(2-Hydroxymethylphenyl)-3-(3-trifluoromethoxyphenyl)urea]
20 | 0.36 µM | O=C(Nc1cccc(OC(F)(F)F)c1)Nc1cccc(F)c1CO [Compound 29, 1-(3-fluoro-2-hydroxymethylphenyl)-3-(3-trifluoromethoxyphenyl)urea]
21 | 0.3 µM | O=C(Nc1cccc(OC(F)(F)F)c1)Nc1cccc(Cl)c1CO [Compound 30, 1-(3-Chloro-2-hydroxymethylphenyl)-3-(3-trifluoromethoxyphenyl)urea]
22 | 0.37 µM | O=C(Nc1cccc(OC(F)(F)F)c1)Nc1cccc(Br)c1CO [Compound 31, 1-(3-bromo-2-hydroxymethylphenyl)-3-(3-trifluoro-methoxyphenyl)urea]
23 | 0.11 µM | O=C(Nc1cccc(OC(F)(F)F)c1)Nc1cc(F)ccc1CO [Compound 32, 1-(5-fluoro-2-hydroxymethylphenyl)-3-(3-trifluoromethoxyphenyl)urea]

Row | IC50 | Compound
24 | 0.06 µM | O=C(Nc1cccc(OC(F)(F)F)c1)Nc1cc(Cl)ccc1CO [Compound 33, 1-(5-Chloro-2-hydroxymethylphenyl)-3-(3-trifluoromethoxyphenyl)urea]
25 | 0.085 µM | O=C(Nc1cccc(OC(F)(F)F)c1)Nc1cc(F)cc(F)c1CO [Compound 35, 1-(3,5-Difluoro-2-hydroxymethylphenyl)-3-(3-trifluoromethoxyphenyl)urea]
26 | 0.032 µM | O=C(Nc1cccc(OC(F)(F)F)c1)Nc1cc(Cl)cc(Cl)c1CO [Compound 36, 1-(3,5-dichloro-2-hydroxymethylphenyl)-3-(3-trifluoromethoxyphenyl)urea]
27 | 0.051 µM | O=C(Nc1cccc(OC(F)(F)F)c1)Nc1cc(Br)cc(Br)c1CO [Compound 37, 1-(3,5-dibromo-2-hydroxymethylphenyl)-3-(3-trifluoromethoxyphenyl)urea]
28 | 0.1 µM | O=C(Nc1cc(NCCO)cc(OC(F)(F)F)c1)Nc1ccccc1CO [Compound 38, 1-[3-(2-hydroxyethylamino)-5-trifluoromethoxyphenyl]-3-(2-hydroxymethylphenyl)urea]
29 | 0.095 µM | NCCNc1cc(NC(=O)Nc2ccccc2CO)cc(OC(F)(F)F)c1 [Compound 39, 1-[3-(2-aminoethylamino)-5-trifluoromethoxyphenyl]-3-(2-hydroxymethylphenyl)urea]
30 | 0.14 µM | O=C(Nc1cccc(SC(F)(F)F)c1)Nc1ccccc1CO [Compound 41, 1-(2-hydroxymethylphenyl)-3-(3-trifluoromethylsulphanylphenyl)urea]
31 | 0.02 µM | O=C(Nc1cccc(SC(F)(F)F)c1)Nc1cc(Cl)ccc1CO [Compound 43, 1-(5-chloro-2-hydroxymethylphenyl)-3-(3-trifluoromethylsulphanylphenyl)urea]
32 | 0.36 µM | O=C(Nc1cc(F)cc(F)c1)Nc1ccccc1CCO [Compound 44, 1-(3,5-difluorophenyl)-3-[2-(2-hydroxyethyl)phenyl]urea]
33 | 0.18 µM | O=C(Nc1cc(Cl)cc(Cl)c1)Nc1ccccc1CCO [Compound 45, 1-(3,5-Dichlorophenyl)-3-[2-(2-hydroxyethyl)phenyl]urea]
34 | 0.14 µM | O=C(Nc1cc(Br)cc(Br)c1)Nc1ccccc1CCO [Compound 46, 1-(3,5-dibromophenyl)-3-[2-(2-hydroxyethyl)phenyl]urea]
35 | 0.21 µM | O=C(Nc1cc(F)cc(Cl)c1)Nc1ccccc1CCO [Compound 48, 1-(3-chloro-5-fluorophenyl)-3-[2-(2-hydroxyethyl)phenyl]urea]
36 | 0.01 µM | O=C(Nc1cc(Cl)cc(Cl)c1)Nc1cc(Cl)cc(Cl)c1CCO [Compound 49, 1-[3,5-Dichloro-2-(2-hydroxyethyl)phenyl]-3-(3,5-dichlorophenyl)urea]
37 | 0.27 µM | COc1cccc(NC(=O)Nc2ccccc2CCO)c1 [Compound 50, 1-[2-(2-hydroxyethyl)phenyl]-3-(3-methoxyphenyl)urea]
38 | 0.28 µM | COc1cc(F)cc(NC(=O)Nc2ccccc2CCO)c1 [Compound 54, 1-(3-fluoro-5-methoxyphenyl)-3-[2-(2-hydroxyethyl)phenyl]urea]
39 | 0.18 µM | COc1cc(Cl)cc(NC(=O)Nc2ccccc2CCO)c1 [Compound 55, 1-(3-Chloro-5-methoxyphenyl)-3-[2-(2-hydroxyethyl)phenyl]urea]
40 | 0.16 µM | COc1cc(NCCO)cc(NC(=O)Nc2ccccc2CCO)c1 [Compound 57, 1-[3-(2-hydroxyethylamino)-5-methoxyphenyl]-3-[2-(2-hydroxyethyl)phenyl]urea]
41 | 0.13 µM | COc1cc(NCCN)cc(NC(=O)Nc2ccccc2CCO)c1 [Compound 58]
42 | 0.036 µM | O=C(Nc1cccc(OC(F)(F)F)c1)Nc1cc(F)ccc1CCO [Compound 63, 1-[5-fluoro-2-(2-hydroxyethyl)phenyl]-3-(3-trifluoromethoxyphenyl)urea]
43 | 0.022 µM | NCCNc1cc(NC(=O)Nc2ccccc2CCO)cc(OC(F)(F)F)c1 [Compound 67]

Row | Compound | IC50
44 | O=C(Nc1ccnc(Cl)c1)Nc1ccccc1CO [Compound 4, 1-(2-chloropyridin-4-yl)-3-(2-hydroxymethylphenyl)urea] | 1.6 µM
45 | O=C(Nc1cc(Cl)nc(Cl)c1)Nc1ccccc1CO [Compound 5, 1-(2,6-dichloropyridin-4-yl)-3-(2-hydroxymethylphenyl)urea] | 0.7 µM
46 | O=C(Nc1ccnc(Cl)c1)Nc1ccccc1CCO [Compound 12, 1-(2-Chloropyridin-4-yl)-3-[2-(2-hydroxyethyl)phenyl]urea] | 1.3 µM
